The target in series [1] is T1, glycine receptor α1 F124A (Homo sapiens, UniProt P23415, F136A).
T1 sequence (P23415 29-457 F136A): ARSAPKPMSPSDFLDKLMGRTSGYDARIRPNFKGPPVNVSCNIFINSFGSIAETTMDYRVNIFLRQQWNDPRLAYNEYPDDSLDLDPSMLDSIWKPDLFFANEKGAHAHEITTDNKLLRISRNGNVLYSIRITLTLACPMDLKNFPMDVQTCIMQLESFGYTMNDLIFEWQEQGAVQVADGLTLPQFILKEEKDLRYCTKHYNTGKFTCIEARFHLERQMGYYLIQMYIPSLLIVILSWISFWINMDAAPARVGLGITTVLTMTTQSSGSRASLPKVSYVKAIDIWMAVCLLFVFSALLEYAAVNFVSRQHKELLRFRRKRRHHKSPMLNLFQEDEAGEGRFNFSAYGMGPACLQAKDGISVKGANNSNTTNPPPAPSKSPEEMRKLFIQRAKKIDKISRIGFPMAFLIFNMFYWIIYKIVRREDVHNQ
The format is cell-based.

Series [2] addresses T2, glycine receptor α1 F124A + D130A (Homo sapiens, UniProt P23415, D142A/F136A).
T2 sequence (P23415 29-457 F136A/D142A): T1 sequence (P23415 29-457 F136A) with D114A
It is filed as cell-based. The following applies: double mutant α1 F124A and D130A.

The next series deals with T3, 5-HT3a (Homo sapiens, UniProt P46098).
T3 sequence (P46098 24-478): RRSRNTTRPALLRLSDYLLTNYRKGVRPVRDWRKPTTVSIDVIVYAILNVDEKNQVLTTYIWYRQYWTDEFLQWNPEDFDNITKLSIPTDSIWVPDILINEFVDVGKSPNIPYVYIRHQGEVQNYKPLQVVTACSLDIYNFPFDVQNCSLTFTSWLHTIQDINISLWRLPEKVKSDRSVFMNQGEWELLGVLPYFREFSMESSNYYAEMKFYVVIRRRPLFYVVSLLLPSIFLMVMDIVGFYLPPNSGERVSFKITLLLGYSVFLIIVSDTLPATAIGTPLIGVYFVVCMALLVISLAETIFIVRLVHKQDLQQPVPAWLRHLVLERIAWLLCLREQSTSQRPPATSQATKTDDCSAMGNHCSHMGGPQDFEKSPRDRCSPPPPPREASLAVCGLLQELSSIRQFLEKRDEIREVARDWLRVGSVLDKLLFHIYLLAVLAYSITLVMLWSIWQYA
The series is described as follows: Interaction with ligand-gated channel 5-HT3a.

Series [3] deals with T4, glycine receptor α1 D130A (Homo sapiens, UniProt P23415, D142A).
T4 sequence (P23415 29-457 D142A): T1 sequence (P23415 29-457 F136A) with A108F, D114A
It is filed as cell-based.

Series [4] addresses T5, human neuronal glycine receptor α1 (Homo sapiens, UniProt P23415).
T5 sequence (P23415 29-457): T1 sequence (P23415 29-457 F136A) with A108F
Description: Two-electrode voltage clamp of glycine-evoked current. The format is cell-based. A general note: Two-electrode voltage clamp is typically applied to oocytes expressing channels or transporters.

For series [5] the following is noted: cited from earlier work.
Where [6] appears, read: glycine concentration-response in presence of 10 µM EG.
Setting [7] is: glycine concentration-response in presence of 100 µM EG.

Positions count from the first letter of the chain named.

The term IC50 denotes the midpoint of a concentration-inhibition curve. In general, Hill coefficient refers to a measure of the steepness of the concentration-response curve. One may read the inhibition as how much of the control response was suppressed. Turning to `CN1C[C@H](C(=O)N[C@]2(C)O[C@@]3(O)[C@@H]4CCCN4C(=O)[C@H](Cc4ccccc4)N3C2=O)C=C2c3cccc4[nH]cc(c34)C[C@H]21` [ergotamine], the concentration for half-maximal inhibition (IC50) in series [1] was found to be 25.7 ± 2.9 µM; in series [3], 28.1 ± 9.7 µM; in series [4], 5.7 ± 0.7 µM. For the same compound, the “Imax (maximum response) of ergotamine inhibition of glycine-evoked current” value is 42.4 ± 1.5 in series [1] (α1 F124A); 32.1 ± 8.8 in series [3] (α1 D130A); 91.5 ± 2.2 in series [4] (α1 wild, 100 µM glycine, −80 mV). The “nH (Hill's coefficient)” value in series [1] (α1 F124A) is on record as 1.3 ± 0.1; in series [3] (α1 D130A), 1.1 ± 0.3; in series [4] (α1 wild), 1.2 ± 0.2. In series [2], the Hill coefficient is on record as 1.9 ± 0.6. In addition, the “interaction with 5-HT3a” value at 5-HT3a is “does not interact”. Also, in series [4] (application of ergotamine and glycine or glycine alone, voltage ramp −100 to +60 mV), the reversal potential result is “approximately 0 mV”. Further, the “inhibition of IGly in voltage ramp” value in series [4] (ergotamine 10 µM + 100 µM glycine, at +60 mV) worked out at 42.3 ± 6.2%; in series [4] (ergotamine 10 µM + 100 µM glycine, at −100 mV) it was 39.9 ± 4.8%; in series [4] (ergotamine 100 µM + 100 µM glycine, at +60 mV) it was 74.6 ± 5.4%; in series [4] (ergotamine 100 µM + 100 µM glycine, at −100 mV) it was 71.9 ± 4.1%. In addition, the “voltage dependence of inhibition (current-voltage relationship)” value in series [4] (ergotamine 10 or 100 µM + 100 µM glycine, ramps −100 to +60 mV) is “voltage insensitive”. Further, the “reversibility of inhibition of IGly” value in series [4] (ergotamine and glycine co-application, washout) is “reversible”. Besides, the “relation between glycine and ergotamine (competition test)” value in series [4] (glycine 0–100 µM with or without ergotamine 10 or 100 µM) is on record as “non-competitive”. The results for the “Imax (maximum response) of glycine-induced current” value in series [4] (setting [6]) and in series [4] (setting [7]) were 53.9 ± 2.3 and 31.7 ± 0.5, respectively. The “nH (Hill's coefficient) of glycine-induced current” value in series [4] (setting [6]) was 1.2 ± 0.2; in series [4] (setting [7]) it was 0.9 ± 0.2. The effect on desensitization entry in series [4] (prolonged glycine application) was “did not alter desensitization kinetics or induce desensitization”. Further, in series [4] (read-out: inhibition of the current stimulated by 100 µM glycine), the inhibition at 10 µM worked out at 59.8 ± 2.9%. The “effect of ergotamine alone on IGly” value in series [4] (various concentrations of ergotamine without glycine, holding potential −80 mV) is “no effect”. In series [5], the “penetration across the blood-brain barrier” value is recorded as “relatively poor penetration”.

With `NCC(=O)O` [glycine], the “nH (Hill's coefficient) of glycine-induced current” value in series [4] (Control, absence of ergotamine) turned out to be 1.1 ± 0.3. The “Imax (maximum response) of glycine-induced current” value in series [4] (Control, absence of ergotamine, glycine 0.3 to 100 µM, −80 mV) is 99.6 ± 2.4.

The values above are taken from paper PMC11981762 (Computational and Structural Biotechnology Journal, 2025).
